The record followed here is US8426429B2, “2-amino-quinazoline derivatives useful as inhibitors of β-secretase (BACE)” (Jansssen Pharmaceutica N.V., priority 2004, dated 2013).

This assay deals with T1, β-secretase (BACE) (Homo sapiens, UniProt P56817).
T1 construct: purchased Panvera
Briefly: BACE FS1 % Inhibition Assay. Format: biochemical. On the procedure:
The following reagents were used in this assay: sodium acetate, PEG8000 (Sigma), DMSO, HEPES, FS1 substrate [[…]] […] The FS1-substrate stock solution was prepared in DMSO as a 10 mg/mL solution. The FS1-substrate working solution was prepared by diluting the 10 mg/mL stock solution with substrate assay buffer to a final concentration of 300 μg/mL. The β-secretase (BACE) working solution was prepared by diluting a 0.83 mg/mL BACE stock solution with enzyme assay buffer to a final concentration of 4 μg/mL. Test compounds were dissolved in DMSO to 10 mM. […] The screening procedure for this assay was as follows: 15 μL of BACE working solution was pipetted into each well of a 96-well plate. To each well was then pipetted 2 μL of test compound at the selected concentration. Test compound and BACE were then mixed with a pipettor and incubated for 20 min at room temperature. To each well was then added 10 μL of the FS1 substrate working solution. The plates were then incubated for 1 hour at room temperature. […] The procedure for the blank was as follows. 15 μL of assay buffer was pipetted into each well to be used as a blank control. To each well was then added 2 μL of vehicle and 10 μL of FS1-substrate working solution. The plates were then incubated for 1 hour at room temperature. […] The procedure for the positive control was as follows: 15 μL of BACE working solution was pipetted into each well to be used as a positive control. To each well was then pipetted 2 μL of vehicle. Vehicle and BACE were then mixed with a pipettor and incubated for 20 min at room temperature. To each well was then added 10 μL of the FS1 substrate working solution. The plates were then incubated for 1 hour at room temperature. […] For test compounds, % inhibition was determined at each concentration as follows: [formula]

T1 sequence (P56817 46-501): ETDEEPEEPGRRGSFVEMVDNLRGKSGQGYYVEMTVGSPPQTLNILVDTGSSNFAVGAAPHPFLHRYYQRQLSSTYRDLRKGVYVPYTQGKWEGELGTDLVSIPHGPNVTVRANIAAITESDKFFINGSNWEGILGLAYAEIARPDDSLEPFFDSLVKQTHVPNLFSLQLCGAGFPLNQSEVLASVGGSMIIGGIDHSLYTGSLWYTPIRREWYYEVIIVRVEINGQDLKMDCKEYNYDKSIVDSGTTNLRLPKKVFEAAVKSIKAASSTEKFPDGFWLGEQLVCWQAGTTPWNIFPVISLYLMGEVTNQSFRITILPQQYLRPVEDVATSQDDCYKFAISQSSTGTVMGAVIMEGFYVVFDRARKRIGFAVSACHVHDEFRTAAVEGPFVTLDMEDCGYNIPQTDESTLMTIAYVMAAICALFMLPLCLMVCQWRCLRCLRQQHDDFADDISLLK

In the case of `CN(C(=O)c1cccc(CN2Cc3cc(Oc4cccc(Oc5ccccc5)c4)ccc3N=C2N)c1)C1CCCCC1` [Compound 236], the “% Inhibition (FS)” value runs as follows: (0.3 μM test compound) less than 30%; (1 μM test compound) 37%; (3 μM test compound) 49%.

Turning to `CC(C)(C)OC(=O)NCC(C1CCCCC1)N1Cc2cc(Oc3ccccc3)ccc2N=C1N` (stereo not drawn) [Compound 257], the “% Inhibition (FS)” value runs as follows: (0.3 μM test compound) 67%; (1 μM test compound) 105%; (3 μM test compound) 111%.

For the molecule `CC(C)(C)OC(=O)NCC(c1ccccc1)N1Cc2cc(Oc3ccccc3)ccc2N=C1N` (stereo not drawn) [Compound 258], the “% Inhibition (FS)” value by setting is: (0.3 μM test compound) less than 30%; (1 μM test compound) 46%; (3 μM test compound) 72%.

In the case of `CN(C(=O)c1cccc(CN2Cc3cc(C=Cc4ccccc4)ccc3N=C2N)c1)C1CCCCC1` [Compound 266], the “% Inhibition (FS)” value by setting is: (0.3 μM test compound) less than 30%; (1 μM test compound) 34%; (3 μM test compound) less than 30%.

Consider `CN(C(=O)c1cccc(CN2Cc3cc(-c4ccc(C5CCCCC5)cc4)ccc3N=C2N)c1)C1CCCCC1` [Compound 267], for which the “% Inhibition (FS)” value by setting is: (0.3 μM test compound) less than 30%; (1 μM test compound) 39%; (3 μM test compound) 38%.

`NC1=Nc2ccc(Oc3ccccc3)cc2CN1Cc1cccc(NC(=O)C2CCCCC2)c1` [Compound 286]: the “% Inhibition (FS)” value (0.3 μM test compound) was less than 30%, the “% Inhibition (FS)” value (1 μM test compound) is reported as less than 30% and the “% Inhibition (FS)” value (3 μM test compound) is reported as 36%.

For the molecule `CC(C)(C)C(=O)Nc1cccc(CN2Cc3cc(Oc4ccccc4)ccc3N=C2N)c1` [Compound 290], the “% Inhibition (FS)” value reads like this: (0.3 μM test compound) less than 30%; (1 μM test compound) less than 30%; (3 μM test compound) less than 30%.

As to `CN(C(=O)CCC(c1ccc(Cl)cc1)N1Cc2cc(Oc3ccccc3)ccc2N=C1N)C1CCCCC1` (stereo not drawn) [Compound 297], the “% Inhibition (FS)” value is on record as less than 30% (0.3 μM test compound), 76% (1 μM test compound) and 109% (3 μM test compound).

As to `NC1=Nc2ccc(Oc3ccccc3)cc2CN1C(CC(=O)NC1CCCCC1)c1ccccc1` (stereo not drawn) [Compound 299], the “% Inhibition (FS)” value (0.3 μM test compound) is less than 30%, the “% Inhibition (FS)” value (1 μM test compound) was less than 30% and the “% Inhibition (FS)” value (3 μM test compound) is reported as less than 30%.

For `NC1=Nc2ccc(Oc3ccccc3)cc2CN1C(CC(=O)NC1CCCCC1)C1CCCCC1` (stereo not drawn) [Compound 300], the “% Inhibition (FS)” value (0.3 μM test compound) is recorded as less than 30%, the “% Inhibition (FS)” value (1 μM test compound) is on record as less than 30% and the “% Inhibition (FS)” value (3 μM test compound) worked out at 77%.

Turning to `CC(C)C(=O)NCC(C1CCCCC1)N1Cc2cc(Oc3ccccc3)ccc2N=C1N` (stereo not drawn) [Compound 301], the “% Inhibition (FS)” value (0.3 μM test compound) is recorded as less than 30%, the “% Inhibition (FS)” value (1 μM test compound) turned out to be 82% and the “% Inhibition (FS)” value (3 μM test compound) came to 106%.

Take `CCCCC(CC)C(=O)NCC(C1CCCCC1)N1Cc2cc(Oc3ccccc3)ccc2N=C1N` (stereo not drawn) [Compound 303]: the “% Inhibition (FS)” value by setting is: (0.3 μM test compound) less than 30%; (1 μM test compound) 70%; (3 μM test compound) 109%.

Regarding `NC1=Nc2ccc(Oc3ccccc3)cc2CN1Cc1cccc(CNC(=O)C2CCCCC2)c1` [Compound 306], the “% Inhibition (FS)” value is, setting by setting: (0.3 μM test compound) less than 30%; (1 μM test compound) less than 30%; (3 μM test compound) 46%.

Turning to `NC1=Nc2ccc(Oc3ccccc3)cc2CN1Cc1cccc(CNC(=O)C(F)(F)F)c1` [Compound 307], the “% Inhibition (FS)” value reads like this: (0.3 μM test compound) less than 30%; (1 μM test compound) less than 30%; (3 μM test compound) less than 30%.

With `CN(C(=O)c1cccc(C(CC2CCCCC2)N2Cc3cc(Oc4ccccc4)ccc3N=C2N)c1)C1CCCCC1` (stereo not drawn) [Compound 310], the “% Inhibition (FS)” value was less than 30% (0.3 μM test compound), less than 30% (1 μM test compound) and 57% (3 μM test compound).

In the case of `NC1=Nc2ccc(Oc3ccccc3)cc2CN1C(CNC(=O)CC1CCCC1)C1CCCCC1` (stereo not drawn) [Compound 311], the “% Inhibition (FS)” value stood at 74% (0.3 μM test compound), 108% (1 μM test compound) and 118% (3 μM test compound).

Take `NC1=Nc2ccc(Oc3ccccc3)cc2CN1C(CNC(=O)C12CC3CC(CC(C3)C1)C2)C1CCCCC1` (stereo not drawn) [Compound 312]: the “% Inhibition (FS)” value is, setting by setting: (0.3 μM test compound) 74%; (1 μM test compound) 103%; (3 μM test compound) 115%.

As to `CC(C)c1ccccc1Oc1ccc2c(c1)CN(C(CC(=O)NC1CCCCC1)C1CCCCC1)C(N)=N2` (stereo not drawn) [Compound 313], the “% Inhibition (FS)” value (0.3 μM test compound) was less than 30%, the “% Inhibition (FS)” value (1 μM test compound) is reported as less than 30% and the “% Inhibition (FS)” value (3 μM test compound) is listed as 31%.

As to `NC1=Nc2ccc(Oc3ccccc3)cc2CN1C(CC(=O)NC1C2CC3CC(C2)CC1C3)C1CCCCC1` (stereo not drawn) [Compound 314], the “% Inhibition (FS)” value (0.3 μM test compound) is listed as less than 30%, the “% Inhibition (FS)” value (1 μM test compound) is 45% and the “% Inhibition (FS)” value (3 μM test compound) is reported as 85%.

Consider `CC(C)(C)OC(=O)NCc1cccc(CN2Cc3cc(Oc4ccccc4)ccc3N=C2N)c1` [Compound 315], for which the “% Inhibition (FS)” value is less than 30% (0.3 μM test compound), less than 30% (1 μM test compound) and 33% (3 μM test compound).

For the molecule `CN1CCC(N(C)C(=O)c2cccc(C(c3ccccc3)N3Cc4cc(Oc5ccccc5)ccc4N=C3N)c2)CC1` (stereo not drawn) [Compound 316], the “% Inhibition (FS)” value is less than 30% (0.3 μM test compound), less than 30% (1 μM test compound) and less than 30% (3 μM test compound).

Consider `CCc1ccccc1-c1ccc2c(c1)CN(Cc1cccc(C(=O)N(C)C3CCCCC3)c1)C(N)=N2` [Compound 320], for which the “% Inhibition (FS)” value (0.3 μM test compound) is reported as −31%, the “% Inhibition (FS)” value (1 μM test compound) is given as less than 30% and the “% Inhibition (FS)” value (3 μM test compound) is less than 30%.

Turning to `CN(C(=O)c1cccc(CN2Cc3cc(-c4ccccc4-c4ccccc4)ccc3N=C2N)c1)C1CCCCC1` [Compound 321], the “% Inhibition (FS)” value is −33% (0.3 μM test compound), less than 30% (1 μM test compound) and less than 30% (3 μM test compound).

For the molecule `CC(=O)c1ccccc1-c1ccc2c(c1)CN(Cc1cccc(C(=O)N(C)C3CCCCC3)c1)C(N)=N2` [Compound 323], the “% Inhibition (FS)” value is recorded as less than 30% (0.3 μM test compound), less than 30% (1 μM test compound) and 45% (3 μM test compound).

Regarding `CN(C(=O)c1cccc(CN2Cc3cc(-c4ccccc4OCc4ccccc4)ccc3N=C2N)c1)C1CCCCC1` [Compound 327], the “% Inhibition (FS)” value reads like this: (0.3 μM test compound) less than 30%; (1 μM test compound) less than 30%; (3 μM test compound) 48%.

Consider `CC(c1ccccc1)c1ccc2c(c1)CN(Cc1cccc(C(=O)N(C)C3CCCCC3)c1)C(N)=N2` (stereo not drawn) [Compound 332], for which the “% Inhibition (FS)” value is reported as less than 30% (0.3 μM test compound), less than 30% (1 μM test compound) and less than 30% (3 μM test compound).

In the case of `CCC(c1cccc(C(=O)N(C)C2CCCCC2)c1)N1Cc2cc(-c3ccccc3OC)ccc2N=C1N` (stereo not drawn) [Compound 395], the “% Inhibition (FS)” value reads like this: (0.3 μM test compound) 69%; (1 μM test compound) 107%; (3 μM test compound) 118%.

Take `CC(C)C(CC(=O)NC1CCCCC1)N1Cc2cc(Oc3ccccc3)ccc2N=C1N` (stereo not drawn) [Compound 401]: the “% Inhibition (FS)” value is less than 30% (0.3 μM test compound), less than 30% (1 μM test compound) and 52% (3 μM test compound).

In the case of `CC(C)C(CC(=O)NC1C2CC3CC(C2)CC1C3)N1Cc2cc(Oc3ccccc3)ccc2N=C1N` (stereo not drawn) [Compound 402], the “% Inhibition (FS)” value reads like this: (0.3 μM test compound) less than 30%; (1 μM test compound) 53%; (3 μM test compound) 99%.

Regarding `NC1=Nc2ccc(Oc3ccccc3)cc2CN1CCCNC1CCCCC1` [Compound 403], the “% Inhibition (FS)” value is, setting by setting: (0.3 μM test compound) less than 30%; (1 μM test compound) less than 30%; (3 μM test compound) 66%.

Regarding `Cc1cccc(Sc2ccc3c(c2)CN(Cc2cccc(C(=O)N(C)C4CCCCC4)c2)C(N)=N3)c1` [Compound 405], the “% Inhibition (FS)” value stood at 43% (0.3 μM test compound), 106% (1 μM test compound) and 118% (3 μM test compound).

`CCc1ccccc1Sc1ccc2c(c1)CN(Cc1cccc(C(=O)N(C)C3CCCCC3)c1)C(N)=N2` [Compound 406]: the “% Inhibition (FS)” value by setting is: (0.3 μM test compound) less than 30%; (1 μM test compound) less than 30%; (3 μM test compound) 50%.

Regarding `CC(C)c1ccc(Sc2ccc3c(c2)CN(Cc2cccc(C(=O)N(C)C4CCCCC4)c2)C(N)=N3)cc1` [Compound 407], the “% Inhibition (FS)” value is less than 30% (0.3 μM test compound), less than 30% (1 μM test compound) and 48% (3 μM test compound).

In the case of `Cc1ccc(Sc2ccc3c(c2)CN(Cc2cccc(C(=O)N(C)C4CCCCC4)c2)C(N)=N3)cc1C` [Compound 408], the “% Inhibition (FS)” value (0.3 μM test compound) was less than 30%, the “% Inhibition (FS)” value (1 μM test compound) amounted to 34% and the “% Inhibition (FS)” value (3 μM test compound) is recorded as 95%.

`Cc1cc(C)cc(Sc2ccc3c(c2)CN(Cc2cccc(C(=O)N(C)C4CCCCC4)c2)C(N)=N3)c1` [Compound 409]: the “% Inhibition (FS)” value was less than 30% (0.3 μM test compound), less than 30% (1 μM test compound) and 72% (3 μM test compound).

Take `COc1ccc(Sc2ccc3c(c2)CN(Cc2cccc(C(=O)N(C)C4CCCCC4)c2)C(N)=N3)cc1` [Compound 410]: the “% Inhibition (FS)” value (0.3 μM test compound) is recorded as less than 30%, the “% Inhibition (FS)” value (1 μM test compound) is listed as 39% and the “% Inhibition (FS)” value (3 μM test compound) turned out to be 50%.
